Measurements published in patent publication US20250144047A1, “PHARMACEUTICAL COMPOSITION FOR PREVENTING, AMELIORATING, OR TREATING CANCER CONTAINING 8-PARADOL” (KDBIO CORP., priority 2022, published 2025).

Experiments:
AGS cells [1] = assay: Western blot analysis of AGS cells; format: cell-based, human
Experimental: (§1) Mitochondria of AGS cells were extracted using an extraction kit (Abcam, Cambridge, MA, USA). According to the instructions for using the kit, the AGS cells were washed with cold PBS and homogenized in a cold glass vortex mixer. For mitochondrial-rich supernatants, the homogenates were centrifuged at 1000 rpm for 10 minutes at 4° C. For whole protein extraction, AGS cells were processed with samples at various concentrations for 24 hours. The cells were dissolved using Pierce™ RIPA buffer (Thermo Fisher Scientific, Rockford, IL, USA) together with protease inhibitor cocktail (GenDEPOT, TX, USA). The cell-dissolved solution formed in the above manner was centrifuged at 12,000 rpm for 20 minutes. The protein was loaded into a 10% SDS-PAGE gel using a protein gel electrophoresis chamber system and transferred to a PVDF membrane (Thermo Fisher Scientific, Rockford, IL, USA). A PBST solution containing 5% skim milk was used to block the membrane at 25° C. for 1 hour. Then, the membrane was incubated overnight at 4° C. with primary antibodies. Finally, the membrane was incubated with the secondary antibodies at 25° C. for 1 hour, and a protein band was detected using West-Q Pico ECL Solution (GenDEPOT, TX, USA). The results were quantified using ImageJ software.

AGS cells [2] = assay: Live/dead cell staining of AGS cells; format: cell-based, human; conditions: 24 hours
Experimental: (§2) Live/dead cells were stained using a live/dead cell staining kit (Thermo Fisher Scientific, Rockford, IL, USA). Specifically, apoptosis was induced by processing AGS cells (2×10^5 cells/well) as a sample for 24 hours. After staining the cells for 30 minutes using the staining kit, the cells were observed using a Leica DM IRB fluorescence microscope (Wetzlar, Germany). In addition, for the colony formation assay, AGS cells were cultured at a density of 500 cells/well and then processed with the sample. Then, the cells were stained with 0.5% crystal violet (Sigma-Aldrich, St. Louis, MO, USA) for 15 minutes […], and then the stained colonies were observed and quantified using ImageJ.

AGS cells [3] = assay: Colony formation assay of AGS cells; format: cell-based, human; conditions: 5-FU positive control
Experimental: as §2

[4] = design: species or system mice; conditions: mouse, in vivo
Experimental: Male nude mice (CAnN.Cg-Foxn1-nu, 4 weeks old, 20 g to 22 g) were purchased from OrientBio (Seongnam, Republic of Korea). The mice were placed in a chamber with conditions maintained at 23° C. and 50% humidity with a period of 12 hours of light and 12 hours of darkness. All animal experiments were conducted according to the National Institutes of Health's Laboratory Animal Care and Use Guidelines (NIH Publications No. 8023, revised 1996) and the Kyung Hee University's Animal Care and Use Guidelines ([…]-441, approval data: Sep. 28, 2021). […] The control group was administered with only 0.9% of general saline during this period. Body weights and tumor volumes of the mice were measured daily in all mice during the study period. All mice were euthanized after the end of the experiments. Blood, liver, spleen, kidney, and tumor tissues were extracted and weighed. In order to obtain the protein of tumor tissue, a portion of the tissue was processed with RIPA buffer containing a protease inhibitor cocktail. Then, the expression degree of a specific protein (determined by Western blot) was determined. […] Fuji Dri-Chem analyzer (3500, Fuji Photo Film Co., Osaka, Japan) was used to measure alanine aminotransferase (ALT), aspartate aminotransferase (AST), total bilirumin (T-Bili), total protein (TP), albumin (Alb), albumin/globulin (A/G) ratio, total cholesterol (T-Chol), total triglyceride (TG), glucose (GLU), and blood urea nitrogen (BUN) values.

[5] = tested on: AGS xenograft tumor tissue; assay: Western blot of tumor tissue of xenograft mice; format: in vivo
Experimental: as §1, with “For” for “Mitochondria of AGS cells were extracted using an extraction kit (Abcam, Cambridge, MA, USA). According to the instructions for using the kit, the AGS cells were washed with cold PBS and homogenized in a cold glass vortex mixer. For mitochondrial-rich supernatants, the homogenates were centrifuged at 1000 rpm for 10 minutes at 4° C. For”
Each mouse was orally administered with 8-paradol and 5-FU once a day for a total of 16 days. The control group was administered with only 0.9% of general saline during this period. Body weights and tumor volumes of the mice were measured daily in all mice during the study period. All mice were euthanized after the end of the experiments. Blood, liver, spleen, kidney, and tumor tissues were extracted and weighed. In order to obtain the protein of tumor tissue, a portion of the tissue was processed with RIPA buffer containing a protease inhibitor cocktail. Then, the expression degree of a specific protein (determined by Western blot) was determined.

HEK293 cells = format: cell-based, human
Experimental: (§3) AGS cells were grown in RPMI medium containing 10% FBS and 1% PS. HEK293 and RAW264.7 cells were grown in DMEM medium containing 10% FBS and 1% PS under conditions of 37° C., 5% CO2 and 95% air.
(§4) In order to evaluate toxicity to each cell, the sample was incubated in each cell (1×10^5 cells/well) cultured in the above manner for 24 hours, and then cytotoxicity to each cell was examined by using the MTT assay.

RAW 264.7 cells = format: cell-based
Experimental: as §3, §4

AGS cells [6] = assay: Hoechst33258 and PI staining; format: cell-based, human
Experimental: AGS cells (1×10^5 cells) were seeded and maintained for 24 hours. In order to evaluate the percentage of apoptotic cells, Hoechst33258 or PI (Thermo Fisher Scientific, Rockford, IL, USA) was added to the AGS cells processed with the sample. After 30 minutes, the cells were observed using the fluorescence microscope (Leica DM IRB).

AGS cells [7] = tested on: AGS cells
Experimental: as §3, §4

[8] = 8-paradol and CQ in combination, compared to 8-paradol solely
[9] = AGS cells, compared with control group

Compound: CCCCCCCCCC(=O)CCc1ccc(O)c(OC)c1 [Purified Compound 3, 8-paradol]
- Bcl-2 expression (AGS cells [1]; [8]): significantly increased
- expression degree of Bax, Cytochrome c and caspase-3/-9 (AGS cells [1]; [8]): significantly decreased
- conversion to LC3b and degradation of p62 (AGS cells [1]; 8-paradol combined with CQ 30 μM, compared to 8-paradol solely): more strongly induces
- expression of TOM20 and TIM23 (AGS cells [1]; 8-paradol in combination with CQ, compared to 8-paradol solely): increased
- amount of Bax, Cytochrome C and Cleaved-caspase-3/-9 (AGS cells [1]; AGS cells): increased
- amount of Bcl-2 (AGS cells [1]; AGS cells): decreased
- expression of p62 (AGS cells [1]; AGS cells): degraded p62 in a dose-dependent manner
- protein expression of Pink1 and Parkin (AGS cells [1]; AGS cells): significantly increased
- protein expression of TOM20 and TIM23 (AGS cells [1]; [9]): decreased
- conversion from LC3a to LC3b (AGS cells [1]; AGS cells, dose- and time-dependent): promoted
- Parkin concentration of the mitochondrial fraction (AGS cells [1]; AGS cells, mitochondrial fraction): increased
- cytotoxicity on AGS cells by cell morphology and live/dead cell staining (AGS cells [2]): strong cytotoxicity
- colony formation ability compared with 5-FU-processed AGS cells (AGS cells [3]): significantly inhibited
- harm to the liver [4]: not harmful to the liver
- kidney damage [4]: did not cause kidney damage
- expression degrees of p62 and Bcl-2 proteins ([5]; tumor tissue): significantly decreased
- mitophagy-related proteins LC3, Pink1 and Parkin in tumor tissue ([5]; tumor tissue of processed mice): significantly increased in a dose-dependent manner
- apoptosis-related proteins Bax, Cytochrome-c, Cleaved-caspase-3/caspase-3 and Cleaved-caspase-9/caspase-9 ([5]; tumor tissue, compared to control group): significantly increased
- cytotoxicity to normal cells HEK293 (HEK293 cells): did not express significant cytotoxicity
- cytotoxicity to normal cells RAW 264.7 (RAW 264.7 cells): did not express significant cytotoxicity
- number of apoptotic cells (Hoechst and PI staining) (AGS cells [6]; 8-paradol and CQ together, compared to 8-paradol solely): significantly reduced
- fragmentation of nuclei and fluorescence of the condensate (Hoechst staining) (AGS cells [6]; AGS cells): became stronger in a dose-dependent manner
- number of killed cells (PI staining) (AGS cells [6]; [9]): increased the number of killed cells
- cytotoxicity to AGS cells (AGS cells [7]): killed in a concentration-dependent manner
- cell viability (AGS cells [7]; [8]): significantly improved
- IC50 (AGS cells [7]; read-out: IC50 on AGS cells, AGS cells, 24 hours, MTT assay): 14.9 ± 1.65 µM
